The subject of test [1] is MCF7. Particulars: cited from earlier work; for cell growth: considered dosages (<10 μM); for cell death / apoptosis: higher dosages, MCF7.
In test [2] the test system is HT-29, human colorectal adenocarcinoma. The experiment in a line: Cell proliferation assay (CellTiter 96 AQueous One Solution). It is filed as cell-based. Particulars: colorectal cancer cell line HT-29; 48 hours of treatment. Here is the method:
(§1) Five tumor cell lines were used in these studies: HT-29, human colorectal adenocarcinoma; H69, human small cell lung cancer (SCLC); H226, human non-small cell lung cancer (NSCLC) (squamous carcinoma); LNCaP, human prostate carcinoma; and U87-luc glioblastoma cell line. H69, H226, and LNCaP cells were grown in American Type Culture Collection (ATCC)-formulated RPMI-1640 Medium (ATCC, cat#30-2001; […]) supplemented with 10% fetal bovine serum (FBS) and 1% penicillin/streptomycin (Invitrogen, Carlsbad, Calif., USA). HT-29 cells were cultured in ATCC-formulated McCoy's 5a Medium (Modified) (ATCC, cat#30-2007). […]
(§2) Cell proliferation was analyzed using CellTiter 96 AQueous One Solution Cell Proliferation Assay (Promega, Madison, Wis., USA) according to the manufacturer's instructions. […] After 3-hrs' incubation, absorbance at 490 nm was measured using the FLUOstar™ Omega Microplate Reader (BMG LABTECH, Cary, N.C., USA). Background absorbance (490 nm) was corrected by subtracting the average 490 nm absorbance of the “no cell” control wells from absorbance values obtained for each of the test wells. The proliferative ratio (% surviving cells) in each sample was calculated by dividing the corrected absorbance value of treated cells by that of control cells with no drug treatment. The results were expressed as mean with standard errors from two independent studies.

Test [3] relates to H226, human non-small cell lung cancer (NSCLC). The test is described as above. In kind it is cell-based. As to the method:
as §1, §2

Test [4] has as its system human breast cancer TICs. Briefly: mammosphere formation efficiency assay on triple-negative cancer cell lines. In kind it is cell-based. Particulars: at least two triple-negative cancer cell lines. The source says: (§3) Thus, the proposed drug-repositioning platform consists of CSB model, bioinformatics software, and drug information databases. Among the twenty-one drug candidates identified in this study, three drugs, i.e., sunitinib (Sutent®, Pfizer Oncology, New York, N.Y., USA), dasatinib (Sprycel®, Bristol-Myers Squibb, Princeton, N.J., USA) and chloroquine (Aralen®, sanofi-aventis, US, LLC, Bridgewater, N.J., USA) were further analyzed for their in vitro and in vivo effects on human breast cancer TICs, and in murine xenograft models. […] As a result of this finding, dasatinib is now currently in Phase II clinical trials for advanced breast cancer to assess the efficacy of this drug for inhibiting TICs.

Test [5] relates to SUM159. Briefly: mammosphere-forming efficiency (MSFE) assay. In kind it is cell-based, human. Particulars: 10 nM and 1 μM, after a single treatment dose. Here is the method: (§4) The bioinformatics systems-based methods described herein also identified a further subset of ten drugs that were subsequently tested in vitro and in vivo for their ability to inhibit breast TICs. These in silico results were first confirmed by in vitro studies that evaluated the effects of these repositioned drugs on mammosphere-forming efficiency. […] Next, limiting dilution transplantation assays were performed, whereupon SUM159 cells were treated with […] overnight and then transplanted the next day 200,000 cells/mouse (single sided).

The subject of test [6] is BT549. Briefly: mammosphere-forming efficiency (MSFE) assay. In kind it is cell-based, human. The conditions noted are these: 10 nM and 1 μM, after a single treatment dose. As to the method: as §4
For test [7], the system named is SUM159 cells. Briefly: limiting dilution transplantation assay. It is filed as in vivo. Particulars: SUM159 cells treated overnight, transplanted 200,000 cells/mouse; vehicle control 9 of 12. Here is the method: as §4
In test [8] the test system is human breast cancer TICs. Briefly: dilute transplantation assay in murine xenograft models. In kind it is in vivo.
Excerpt: as §3

In test [9] the test system is breast TICs. Briefly: inhibition of breast TICs in vitro and in vivo (FIG. 3, human breast cancer xenograft mammosphere formation efficiency). In kind it is cell-based.

Entries after “also recorded” stand apart in the source; their conditions may differ.

As for `C[C@]12CC[C@@H]3c4ccc(O)cc4C[C@@H](CCCCCCCCC[S+]([O-])CCCC(F)(F)C(F)(F)F)[C@H]3[C@@H]1CC[C@@H]2O` (stereo partly shown) [fulvestrant], in test [1], the cell growth result is reported as “significantly inhibited cell growth” and the “cell death / apoptosis” value is given as “does not induce any cell death; also recorded: did not induce the cell death”.

As for `COc1cc2ncnc(Nc3ccc(F)c(Cl)c3)c2cc1OCCCN1CCOCC1` [gefitinib], the “effect on cell proliferation” value in test [2] and in test [3] was “positive effects” each time.

For the compound `CCN(CC)CCCC(C)Nc1ccnc2cc(Cl)ccc12` (stereo not shown) [chloroquine], the “anti-TICs effects (mammosphere formation efficiency assay)” value in test [4] is on record as “anti-TICs effects”. In addition, the “MSFE (mammosphere-forming efficiency)” value in test [5] and in [6] was “dramatic reduction” in each case. Besides, the “tumor initiation rate (xenografts growing within 10 weeks)” value in test [7] is given as 1 of 12. For the same compound, in [8], the “anti-cancer effects in animal models (dilute transplantation assay)” value is reported as “anti-cancer effects”. Besides, the “inhibiting breast TICs” value in [9] is recorded as “effective in inhibiting breast TICs”.

On to `CC(=O)O[C@H]1C(=O)[C@@]2(C)[C@H]([C@H](OC(=O)c3ccccc3)[C@]3(O)C[C@H](OC(=O)[C@H](O)[C@@H](NC(=O)c4ccccc4)c4ccccc4)C(C)=C1C3(C)C)[C@]1(OC(C)=O)CO[C@@H]1C[C@@H]2O` [paclitaxel], for which, in test [1], the cell growth result is recorded as “significantly inhibited cell growth” and the “cell death / apoptosis” value is on record as “induce apoptosis at higher dosages; also recorded: some experiments also cause the cell death”.

Regarding `O=C(c1ccc(OCCN2CCCCC2)cc1)c1c(-c2ccc(O)cc2)sc2cc(O)ccc12` [raloxifene], in [1], the cell growth entry is on record as “significantly inhibited cell growth” and the “cell death / apoptosis” value is “induce apoptosis at higher dosages; also recorded: induced cell death at higher dosages”.

In the case of `CC/C(=C(\c1ccccc1)c1ccc(OCCN(C)C)cc1)c1ccccc1` [tamoxifen], in test [1], the cell growth entry is listed as “significantly inhibited cell growth” and the “cell death / apoptosis” value is on record as “induce apoptosis at higher dosages; also recorded: induced cell death at higher dosages”.

The record behind these values is US20120296090A1, “Drug Repositioning Methods For Targeting Breast Tumor Initiating Cells” (The Methodist Hospital Research Institute, priority 2011, published 2012).
